Assay results from patent publication US20250177302A1, “LIPOSOME COMPOSITION AND LIPOSOME-CONTAINING PHARMACEUTICAL COMPOSITION” (Eisai R&D Management Co., Ltd., priority 2022, published 2025).

What was measured:
[1] = Measurement of blood drug concentration (2), change over time; assay type: in vivo; conditions: mice, i.v. 2 mg/kg, 15 minutes, 4 hours and 24 hours after administration
Method: The blood was centrifuged for 10 minutes at about 1200 g, and the plasma was collected. The drug concentration of the harvested plasma was assayed using LC-MS/MS.
The liposome compositions of Examples 2, 5 and 8, and an aqueous solution of methanesulfonic acid salt of compound (I), were administered to mice by the same method as “4. Measurement of blood drug concentration (1)”, collecting blood at 15 minutes, 4 hours and 24 hours after administration, and measuring the change in blood drug concentration.

[2] = tested on: HUVEC proliferation in the presence of VEGF; assay: HUVEC 2D growth assay, cell proliferation by VEGF stimulation; assay type: cell-based; conditions: Homo sapiens, 72 h, VEGF 20 ng/mL, 3 days, CellTiter-Glo
Method: (§1) 1. Measurement of Inhibiting Effect on Cell Proliferation by Vascular Endothelial Growth Factor (VEGF) or Basic Fibroblast Growth Factor (bFGF) Stimulation
(§2) The inhibiting effect of compound (I) on cell proliferation by VEGF or bFGF stimulation was evaluated by the following procedure based on HUVEC 2D growth assay.
(§3) Normal human umbilical vein endothelial cells (HUVEC) were isolated by a previously reported method (Shinseikagaku Jikken Koza, “Cell Culture Technology”, p.197-202). The cells were cultured overnight in a collagen I-coated flask (IWAKI 4143-010), with EGM-2 culture medium (Lonza Inc CC-3162) containing 10% Fetal Bovine Serum (FBS: Sigma 172012) in a 5% CO2 incubator (37° C.). On the following day, the culture supernatant was discarded and the medium was exchanged with EBM-2 culture medium containing 2% FBS, prior to further culturing overnight. On the following day, 2% FBS, and a HUVEC cell suspension prepared to 1.5×10^4 cells/mL with Human Endothelial Serum Free Medium (SFM: Gibco 11111-044) containing penicillin/streptomycin (FujiFilm-Wako Pure Chemical Industries) (hereunder referred to as “2% FBS-SFM”) were each added at 100 μL to each well of a 96-well plate (Corning 3904), and culturing was carried out overnight in a 5% CO2 incubator (37° C.). […]

[3] = tested on: HUVEC proliferation in the presence of bFGF; assay: HUVEC 2D growth assay, cell proliferation by bFGF stimulation; assay type: cell-based; conditions: Homo sapiens, 72 h, bFGF 20 ng/mL, 3 days, CellTiter-Glo
Method: as §1, §2, §3

| Compound | Change in blood drug concentration (FIG. 1), in words [1] | IC50 [2] | IC50 [3] |
| --- | --- | --- | --- |
| CCNC(=O)Nc1ccc(Oc2ccnc3cc(OC)c(C(N)=O)cc23)cc1Cl.CS(=O)(=O)O [4-(3-Chloro-4-(ethylaminocarbonyl)aminophenoxy)-7-methoxy-6-quinolinecarboxamide methanesulfonate] | significantly lower after 24 hours | – | – |
| CCNC(=O)Nc1ccc(Oc2ccnc3cc(OC)c(C(N)=O)cc23)cc1Cl [compound (I), 4-(3-chloro-4-(ethylaminocarbonyl)aminophenoxy)-7-methoxy-6-quinolinecarboxamide] | – | 1.75 nM | 343 nM |
